Measurements reported in ChEMBL document CHEMBL1201862, “PubChem BioAssay data set” (2004).
The source made the active and inactive calls.

What was measured:
HEK293 [1] = assay: inhibition of NOD1-driven NF-kB reporter – cell-based, luminescence, uHTS, primary screen (AID 1578); assay type: functional; conditions: Homo sapiens
HEK293 [2] = assay: cells; assay type: functional, cell-based; conditions: Homo sapiens
HEK293 [3] = assay: cells; assay type: functional, cell-based; conditions: Homo sapiens; remark: listed apart in the source
HEK293 [4] = assay: NOD2 signaling inhibitors in MDP-stimulated cells, cell-based, uHTS, luminescence (AID 2001); assay type: functional; conditions: Homo sapiens
[5] = biological target: Nucleotide-binding oligomerization domain-containing protein 1 (Homo sapiens, UniProt Q9Y239); assay: blockers of NOD1 pathway activity – revised, SAR follow-up (AID 2333); assay type: functional
INS1 = assay: INS-1E survival protection against cytokine death – cell-based, luminescence, retest, dose response (AID 449756); assay type: functional; conditions: Rattus norvegicus;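 further: cell death triggered by IL-1 beta plus TNF-alpha plus IFN-gamma mixture; protective hits raise ATP signal compared with cytokine alone wells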
[6] = reduction of Shn3 3'UTR-driven luciferase in osteoblasts – cell-based, Clone20 osteoblasts, firefly luciferase, cherry-picked, dose response (AID 624132); assay type: functional;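 further: firefly luciferase luminescence from reporter carrying the Shn3 3'UTR in osteoblasts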
[7] = loss of viability in HepG2 cells – cell-based, CellTiter-Glo, cherry-picked, cytotoxicity control for Shn3 inhibitor project, dose response (AID 624134); assay type: functional
[8] = non-specific 3'UTR reporter inhibition in Clone20-Shn3RL – cell-based, Renilla luciferase, cherry-picked, counter-screen for Shn3 inhibitor project, dose response (AID 624133); assay type: functional
HEK293 [9] = assay: cells; conditions: Homo sapiens
[10] = biological target: T1, Dual specificity protein phosphatase 3 (Homo sapiens, UniProt P51452); assay: VHR1 phosphatase inhibitors, primary screen, biochemical, absorbance, uHTS (AID 1654)
[11] = biological target: T2, Voltage-gated N-type calcium channel alpha-1B subunit/Amyloid beta A4 precursor protein-binding family A member 1 (Homo sapiens, UniProt Q00975+Q02410); assay type: protein assay
[12] = biological target: T2, Voltage-gated N-type calcium channel alpha-1B subunit/Amyloid beta A4 precursor protein-binding family A member 1; assay type: protein assay; remark: listed apart in the source
[13] = biological target: Induced myeloid leukemia cell differentiation protein Mcl-1 (Homo sapiens, UniProt Q07820); assay: blockers of MCL1 binding to BIM peptide – biochemical, fluorescence polarization, BIM-BH3 peptide, 1536-well, dose response (AID 2217)
[14] = biological target: T1, Dual specificity protein phosphatase 3; assay: VHR1 phosphatase inhibitors, biochemical (AID 1878)
Bcl-2-like protein 1 = Bcl-2-like protein 1 (Homo sapiens, UniProt Q07817); assay: blockers of BCLXL peptide binding – biochemical, fluorescence polarization, 1536-well, selectivity assay for MCL1 inhibitor project, dose response (AID 2218)
[15] = biological target: Dual specificity protein phosphatase 6 (Rattus norvegicus, UniProt Q64346); assay: inhibition of rat DUSP6 enzyme activity – biochemical, in vitro, primary screen (AID 425)
Beta-galactosidase = Beta-galactosidase (Escherichia coli, UniProt Q8VNN2); assay: detection-enzyme interference by beta-gal modulators – biochemical, E. coli enzyme, set 3, artefact control for CCR6 antagonist project, dose response (AID 504712); assay type: functional
[16] = biological target: T3, Replicative DNA helicase DnaB (Mycobacterium tuberculosis, UniProt P9WMR3); assay: DnaB intein splicing inhibitors, dose response, biochemical, cell-free fluorescence (AID 449749); assay type: functional
T3 sequence (P9WMR3 whole entry): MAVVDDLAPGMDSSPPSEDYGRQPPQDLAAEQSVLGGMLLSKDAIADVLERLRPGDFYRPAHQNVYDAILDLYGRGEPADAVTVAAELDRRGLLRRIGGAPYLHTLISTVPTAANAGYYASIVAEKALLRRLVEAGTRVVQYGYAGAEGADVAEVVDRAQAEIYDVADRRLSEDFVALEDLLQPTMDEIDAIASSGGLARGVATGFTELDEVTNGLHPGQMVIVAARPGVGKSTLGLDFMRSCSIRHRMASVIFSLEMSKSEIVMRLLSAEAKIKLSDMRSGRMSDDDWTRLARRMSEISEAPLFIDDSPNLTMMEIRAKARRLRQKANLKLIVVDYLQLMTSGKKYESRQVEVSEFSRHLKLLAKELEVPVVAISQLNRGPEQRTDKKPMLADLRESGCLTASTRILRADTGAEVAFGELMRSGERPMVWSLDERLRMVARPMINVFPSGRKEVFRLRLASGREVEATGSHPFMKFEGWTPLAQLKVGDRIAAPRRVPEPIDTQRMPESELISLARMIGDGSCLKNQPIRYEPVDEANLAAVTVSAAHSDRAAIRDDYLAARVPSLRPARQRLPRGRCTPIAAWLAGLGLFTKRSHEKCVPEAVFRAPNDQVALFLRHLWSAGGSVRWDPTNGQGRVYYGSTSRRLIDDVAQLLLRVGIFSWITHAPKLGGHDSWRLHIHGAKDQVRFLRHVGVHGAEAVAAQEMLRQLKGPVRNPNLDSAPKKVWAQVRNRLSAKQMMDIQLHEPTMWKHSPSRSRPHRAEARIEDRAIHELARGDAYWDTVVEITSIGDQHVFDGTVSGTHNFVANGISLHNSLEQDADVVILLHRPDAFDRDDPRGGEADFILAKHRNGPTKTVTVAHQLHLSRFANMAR

Protein RecA = biological target: T4, Protein RecA (Mycobacterium tuberculosis, UniProt P9WHJ3); assay: Fluorescence Cell-Free Homogeneous Dose Retest to Identify Inhibitors of RecA-Intein Splicing Activity. [Related pubchem assays (depositor defined):AID2097, AID2223, AID489010, AID492950]; assay type: functional
T4 sequence (P9WHJ3 whole entry): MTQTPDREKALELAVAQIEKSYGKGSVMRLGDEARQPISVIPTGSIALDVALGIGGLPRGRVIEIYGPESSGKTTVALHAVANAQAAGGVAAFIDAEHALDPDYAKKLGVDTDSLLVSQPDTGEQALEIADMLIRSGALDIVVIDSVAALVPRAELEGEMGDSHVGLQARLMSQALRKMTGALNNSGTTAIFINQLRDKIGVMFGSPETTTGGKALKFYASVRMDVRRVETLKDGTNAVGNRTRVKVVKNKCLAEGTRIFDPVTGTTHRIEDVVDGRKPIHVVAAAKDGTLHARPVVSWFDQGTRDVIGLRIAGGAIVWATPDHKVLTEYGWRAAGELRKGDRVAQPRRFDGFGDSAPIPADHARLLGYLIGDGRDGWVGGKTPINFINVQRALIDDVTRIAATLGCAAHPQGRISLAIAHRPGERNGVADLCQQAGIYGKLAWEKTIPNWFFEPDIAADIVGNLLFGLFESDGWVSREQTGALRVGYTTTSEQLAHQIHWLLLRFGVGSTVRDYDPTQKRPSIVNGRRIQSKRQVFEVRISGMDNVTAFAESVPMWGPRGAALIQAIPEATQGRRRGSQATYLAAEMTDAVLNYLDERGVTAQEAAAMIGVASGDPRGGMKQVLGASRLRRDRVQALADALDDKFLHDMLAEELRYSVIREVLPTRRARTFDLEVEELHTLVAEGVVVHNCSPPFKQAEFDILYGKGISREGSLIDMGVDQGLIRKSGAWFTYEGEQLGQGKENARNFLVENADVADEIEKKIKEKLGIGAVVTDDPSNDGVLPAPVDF

Genome polyprotein = Genome polyprotein (dengue virus type 2, UniProt P29990); assay: flavivirus cap methylation enzyme inhibition – biochemical, confirmation dose response, primary screen (AID 588689); assay type: functional
[17] = biological target: Sphingosine 1-phosphate receptor 5 (Homo sapiens, UniProt Q9H228); assay: Late stage counterscreen assay for S1P4 antagonists: Fluorescence dose response cell-based screening assay for antagonists of the Sphingosine 1-Phosphate Receptor 5 (S1P5). [Related pubchem assays (depositor defined):AID1510, AID1524, AID1692, AID1853, AID2332, AID489009, AID489017]; assay type: functional
[18] = biological target: Sphingosine 1-phosphate receptor 3 (Homo sapiens, UniProt Q99500); assay: Late stage counterscreen assay for S1P4 antagonists: Fluorescence dose response cell-based screening assay for antagonists of the Sphingosine 1-Phosphate Receptor 3 (S1P3). [Related pubchem assays (depositor defined):AID1510, AID1524, AID1692, AID1853, AID2332, AID489009, AID489017]; assay type: functional
[19] = biological target: Sphingosine 1-phosphate receptor 1 (Homo sapiens, UniProt P21453); assay: Late stage counterscreen assay for S1P4 antagonists: Fluorescence dose response cell-based screening assay for antagonists of the Sphingosine 1-Phosphate Receptor 1 (S1P1). [Related pubchem assays (depositor defined):AID1510, AID1524, AID1692, AID1853, AID2332, AID489009, AID489017]; assay type: functional
[20] = biological target: T5, Sphingosine 1-phosphate receptor 4 (Homo sapiens, UniProt O95977); assay: potency of S1P4 blockers – cell-based, fluorescence, synthesized analogues, late-stage follow-up (AID 2346); assay type: functional
T5 sequence (O95977 whole entry): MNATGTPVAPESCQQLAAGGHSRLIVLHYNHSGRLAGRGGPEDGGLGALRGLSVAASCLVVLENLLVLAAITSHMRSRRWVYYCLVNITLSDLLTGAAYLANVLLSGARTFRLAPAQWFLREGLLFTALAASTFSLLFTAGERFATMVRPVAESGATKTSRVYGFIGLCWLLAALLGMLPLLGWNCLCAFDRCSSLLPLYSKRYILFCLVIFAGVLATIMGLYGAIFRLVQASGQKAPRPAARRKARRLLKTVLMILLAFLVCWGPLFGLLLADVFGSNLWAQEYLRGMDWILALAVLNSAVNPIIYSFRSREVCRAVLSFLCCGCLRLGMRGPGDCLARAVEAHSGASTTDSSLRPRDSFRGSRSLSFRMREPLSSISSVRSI

[21] = biological target: Sphingosine 1-phosphate receptor 2 (Homo sapiens, UniProt O95136); assay: Late stage counterscreen assay for S1P4 antagonists: Fluorescence dose response cell-based screening assay for antagonists of the Sphingosine 1-Phosphate Receptor 2 (S1P2). [Related pubchem assays (depositor defined):AID1510, AID1524, AID1692, AID1853, AID2332, AID489009, AID489017]; assay type: functional
[22] = biological target: T6, RNA-binding protein pos-1 (Caenorhabditis elegans, UniProt G5EF15); assay: disruptors of C. elegans POS-1 RNA interaction – biochemical, fluorescence polarization, dose response (AID 1964);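 further: purified POS-1 fused to maltose binding protein made in E. coli; potency of compounds blocking POS-1 binding to fluorescent RNA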
T6 sequence (G5EF15 whole entry): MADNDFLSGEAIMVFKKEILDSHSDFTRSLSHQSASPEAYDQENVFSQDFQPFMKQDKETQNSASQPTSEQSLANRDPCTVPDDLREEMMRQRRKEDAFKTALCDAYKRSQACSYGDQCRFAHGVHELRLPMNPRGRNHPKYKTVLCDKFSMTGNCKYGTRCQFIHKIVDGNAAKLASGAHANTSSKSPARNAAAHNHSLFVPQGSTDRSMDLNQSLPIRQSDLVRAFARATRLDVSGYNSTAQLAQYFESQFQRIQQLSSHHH

[23] = biological target: T7, Zinc finger protein mex-5 (Caenorhabditis elegans, UniProt Q9XUB2); assay: potency of MEX-5 RNA-binding blockers – biochemical, C. elegans, fluorescence polarization, dose response (AID 1960)
T7 sequence (Q9XUB2 whole entry): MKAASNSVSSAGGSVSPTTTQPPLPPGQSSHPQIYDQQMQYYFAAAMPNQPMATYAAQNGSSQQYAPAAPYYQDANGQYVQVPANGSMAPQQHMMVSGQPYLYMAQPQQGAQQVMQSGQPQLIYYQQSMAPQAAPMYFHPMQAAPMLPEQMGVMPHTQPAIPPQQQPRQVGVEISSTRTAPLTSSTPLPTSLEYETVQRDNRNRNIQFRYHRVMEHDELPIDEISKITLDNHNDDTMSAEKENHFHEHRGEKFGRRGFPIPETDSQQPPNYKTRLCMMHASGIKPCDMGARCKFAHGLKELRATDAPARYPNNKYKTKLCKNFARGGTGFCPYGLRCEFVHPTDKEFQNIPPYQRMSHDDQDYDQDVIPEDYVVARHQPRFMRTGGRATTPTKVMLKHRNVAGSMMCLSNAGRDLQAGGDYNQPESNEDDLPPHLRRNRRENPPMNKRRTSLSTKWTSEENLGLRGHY

[24] = biological target: FAD-linked sulfhydryl oxidase ALR (Homo sapiens, UniProt P55789); assay: ALR-catalysed DTT oxidation blockers – biochemical, H2O2 detection, luminescence, cherry-pick, dose response (AID 493248)
[25] = biological target: Lysine-specific demethylase 4C (Homo sapiens, UniProt Q9H3R0); assay: inhibition of JMJD2C H3K9me3 demethylation – biochemical, DELFIA europium, cherry-picked samples, dose response (AID 488835); assay type: functional

T1 sequence (P51452 whole entry): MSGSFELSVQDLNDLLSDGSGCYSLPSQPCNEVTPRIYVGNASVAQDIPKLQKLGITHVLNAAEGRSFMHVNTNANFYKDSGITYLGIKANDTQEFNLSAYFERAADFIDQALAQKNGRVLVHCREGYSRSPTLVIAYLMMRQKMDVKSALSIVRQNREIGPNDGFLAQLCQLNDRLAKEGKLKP
T2 sequence (Q00975 whole entry): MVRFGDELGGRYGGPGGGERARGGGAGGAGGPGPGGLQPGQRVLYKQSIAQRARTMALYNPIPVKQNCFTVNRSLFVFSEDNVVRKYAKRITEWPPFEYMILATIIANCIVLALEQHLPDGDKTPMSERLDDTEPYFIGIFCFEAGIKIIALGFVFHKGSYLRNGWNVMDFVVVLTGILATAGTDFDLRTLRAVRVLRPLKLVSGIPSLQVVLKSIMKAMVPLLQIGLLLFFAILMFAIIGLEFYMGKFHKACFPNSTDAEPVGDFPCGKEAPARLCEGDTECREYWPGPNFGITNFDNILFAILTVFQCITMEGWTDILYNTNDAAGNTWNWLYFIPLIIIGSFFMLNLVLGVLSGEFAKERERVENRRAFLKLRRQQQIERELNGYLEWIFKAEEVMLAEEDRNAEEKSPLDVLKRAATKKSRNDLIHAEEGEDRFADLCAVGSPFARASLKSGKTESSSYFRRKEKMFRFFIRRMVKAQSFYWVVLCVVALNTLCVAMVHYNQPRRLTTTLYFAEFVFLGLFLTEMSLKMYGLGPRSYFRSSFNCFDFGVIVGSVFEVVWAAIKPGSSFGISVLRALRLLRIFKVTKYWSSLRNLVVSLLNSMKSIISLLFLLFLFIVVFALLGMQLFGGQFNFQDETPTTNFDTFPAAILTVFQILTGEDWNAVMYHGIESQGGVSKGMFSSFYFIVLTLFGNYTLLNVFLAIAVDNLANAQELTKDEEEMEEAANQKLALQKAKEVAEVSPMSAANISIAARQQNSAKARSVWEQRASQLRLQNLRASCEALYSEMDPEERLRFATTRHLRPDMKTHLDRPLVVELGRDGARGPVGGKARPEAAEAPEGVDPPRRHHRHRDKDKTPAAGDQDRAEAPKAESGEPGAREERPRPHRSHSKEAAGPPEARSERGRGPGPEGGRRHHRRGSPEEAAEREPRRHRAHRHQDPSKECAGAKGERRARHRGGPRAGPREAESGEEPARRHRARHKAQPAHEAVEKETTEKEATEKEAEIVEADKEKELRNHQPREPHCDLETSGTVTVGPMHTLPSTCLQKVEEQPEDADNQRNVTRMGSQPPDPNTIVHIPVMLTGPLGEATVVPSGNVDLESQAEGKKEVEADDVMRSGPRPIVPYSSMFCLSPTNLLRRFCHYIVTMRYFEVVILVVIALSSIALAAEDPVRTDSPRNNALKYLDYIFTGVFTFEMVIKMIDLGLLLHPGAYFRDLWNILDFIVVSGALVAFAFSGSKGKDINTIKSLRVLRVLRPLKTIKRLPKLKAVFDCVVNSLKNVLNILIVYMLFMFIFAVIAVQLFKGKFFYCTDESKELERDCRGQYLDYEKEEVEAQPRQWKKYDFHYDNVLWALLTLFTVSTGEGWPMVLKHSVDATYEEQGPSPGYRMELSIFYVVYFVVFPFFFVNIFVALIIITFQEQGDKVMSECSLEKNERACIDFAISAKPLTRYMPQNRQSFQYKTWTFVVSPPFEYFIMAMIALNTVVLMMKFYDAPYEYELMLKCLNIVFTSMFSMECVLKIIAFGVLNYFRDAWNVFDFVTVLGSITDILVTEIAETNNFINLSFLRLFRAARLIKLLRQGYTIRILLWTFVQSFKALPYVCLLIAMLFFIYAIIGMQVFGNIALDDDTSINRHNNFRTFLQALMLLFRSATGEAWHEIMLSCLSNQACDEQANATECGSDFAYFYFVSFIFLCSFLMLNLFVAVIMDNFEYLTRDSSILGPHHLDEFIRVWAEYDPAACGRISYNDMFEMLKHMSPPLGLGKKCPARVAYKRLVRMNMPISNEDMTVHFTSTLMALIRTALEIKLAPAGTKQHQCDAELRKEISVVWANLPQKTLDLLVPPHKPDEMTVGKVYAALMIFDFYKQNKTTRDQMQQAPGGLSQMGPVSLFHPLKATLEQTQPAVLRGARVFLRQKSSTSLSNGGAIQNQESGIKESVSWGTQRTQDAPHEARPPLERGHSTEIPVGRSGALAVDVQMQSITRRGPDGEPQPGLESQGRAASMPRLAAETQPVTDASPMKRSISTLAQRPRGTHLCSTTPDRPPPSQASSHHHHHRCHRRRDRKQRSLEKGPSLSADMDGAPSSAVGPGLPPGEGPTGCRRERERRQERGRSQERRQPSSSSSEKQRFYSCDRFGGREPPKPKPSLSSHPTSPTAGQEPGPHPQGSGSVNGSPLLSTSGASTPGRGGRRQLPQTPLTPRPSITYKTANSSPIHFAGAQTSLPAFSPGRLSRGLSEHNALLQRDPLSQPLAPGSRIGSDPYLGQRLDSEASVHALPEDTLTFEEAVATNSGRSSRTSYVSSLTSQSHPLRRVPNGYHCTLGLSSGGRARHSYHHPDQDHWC
T2 sequence (Q02410 whole entry): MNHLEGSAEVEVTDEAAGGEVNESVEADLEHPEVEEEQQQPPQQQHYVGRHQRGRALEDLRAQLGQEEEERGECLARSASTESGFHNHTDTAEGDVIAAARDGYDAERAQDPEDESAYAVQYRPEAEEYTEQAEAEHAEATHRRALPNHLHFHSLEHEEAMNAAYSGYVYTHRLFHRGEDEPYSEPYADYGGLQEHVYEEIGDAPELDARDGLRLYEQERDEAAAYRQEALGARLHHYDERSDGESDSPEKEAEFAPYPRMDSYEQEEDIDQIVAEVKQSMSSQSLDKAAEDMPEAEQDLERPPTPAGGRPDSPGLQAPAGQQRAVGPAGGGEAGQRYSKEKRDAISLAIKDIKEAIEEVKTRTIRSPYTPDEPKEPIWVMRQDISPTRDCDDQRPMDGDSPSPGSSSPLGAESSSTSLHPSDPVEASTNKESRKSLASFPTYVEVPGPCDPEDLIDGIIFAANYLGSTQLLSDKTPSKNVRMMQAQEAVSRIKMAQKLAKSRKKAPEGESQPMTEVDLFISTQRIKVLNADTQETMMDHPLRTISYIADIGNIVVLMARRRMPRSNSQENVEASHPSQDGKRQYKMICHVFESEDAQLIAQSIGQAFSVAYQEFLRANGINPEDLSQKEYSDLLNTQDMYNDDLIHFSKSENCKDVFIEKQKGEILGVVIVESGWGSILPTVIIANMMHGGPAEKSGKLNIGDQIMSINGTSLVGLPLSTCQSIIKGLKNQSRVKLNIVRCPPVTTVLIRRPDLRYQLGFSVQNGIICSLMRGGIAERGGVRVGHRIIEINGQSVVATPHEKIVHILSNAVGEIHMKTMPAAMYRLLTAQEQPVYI
Chain of Sphingosine 1-phosphate receptor 3 (Q99500 whole entry): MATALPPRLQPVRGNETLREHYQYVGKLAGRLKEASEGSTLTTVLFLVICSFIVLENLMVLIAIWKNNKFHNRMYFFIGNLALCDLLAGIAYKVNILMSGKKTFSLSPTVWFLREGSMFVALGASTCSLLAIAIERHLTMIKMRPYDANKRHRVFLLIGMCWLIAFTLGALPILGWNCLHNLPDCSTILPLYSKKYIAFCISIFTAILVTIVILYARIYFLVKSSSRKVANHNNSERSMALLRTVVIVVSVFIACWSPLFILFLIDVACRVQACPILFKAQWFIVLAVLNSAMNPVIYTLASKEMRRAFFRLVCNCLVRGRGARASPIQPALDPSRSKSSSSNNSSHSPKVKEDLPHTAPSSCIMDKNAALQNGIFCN
Chain of Induced myeloid leukemia cell differentiation protein Mcl-1 (Q07820 whole entry): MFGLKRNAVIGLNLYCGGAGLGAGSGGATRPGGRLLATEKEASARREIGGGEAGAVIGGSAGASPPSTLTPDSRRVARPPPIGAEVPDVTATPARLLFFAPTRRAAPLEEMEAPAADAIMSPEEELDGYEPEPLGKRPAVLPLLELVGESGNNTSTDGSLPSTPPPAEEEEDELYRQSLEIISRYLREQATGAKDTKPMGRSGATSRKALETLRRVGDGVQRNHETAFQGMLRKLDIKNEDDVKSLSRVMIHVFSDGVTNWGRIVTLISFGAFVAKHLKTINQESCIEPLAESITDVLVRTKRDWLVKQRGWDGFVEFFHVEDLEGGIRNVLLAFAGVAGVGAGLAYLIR
Chain of Sphingosine 1-phosphate receptor 1 (P21453 whole entry): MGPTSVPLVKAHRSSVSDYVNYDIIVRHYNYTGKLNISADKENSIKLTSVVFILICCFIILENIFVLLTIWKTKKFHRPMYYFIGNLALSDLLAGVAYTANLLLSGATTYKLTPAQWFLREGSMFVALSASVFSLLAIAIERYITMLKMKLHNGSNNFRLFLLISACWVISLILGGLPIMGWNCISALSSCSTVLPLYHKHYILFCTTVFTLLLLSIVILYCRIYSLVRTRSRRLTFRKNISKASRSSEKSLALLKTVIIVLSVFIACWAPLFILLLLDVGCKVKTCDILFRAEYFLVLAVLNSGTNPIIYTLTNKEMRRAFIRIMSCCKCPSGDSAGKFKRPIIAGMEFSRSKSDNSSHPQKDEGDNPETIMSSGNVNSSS
Chain of Dual specificity protein phosphatase 6 (Q64346 whole entry): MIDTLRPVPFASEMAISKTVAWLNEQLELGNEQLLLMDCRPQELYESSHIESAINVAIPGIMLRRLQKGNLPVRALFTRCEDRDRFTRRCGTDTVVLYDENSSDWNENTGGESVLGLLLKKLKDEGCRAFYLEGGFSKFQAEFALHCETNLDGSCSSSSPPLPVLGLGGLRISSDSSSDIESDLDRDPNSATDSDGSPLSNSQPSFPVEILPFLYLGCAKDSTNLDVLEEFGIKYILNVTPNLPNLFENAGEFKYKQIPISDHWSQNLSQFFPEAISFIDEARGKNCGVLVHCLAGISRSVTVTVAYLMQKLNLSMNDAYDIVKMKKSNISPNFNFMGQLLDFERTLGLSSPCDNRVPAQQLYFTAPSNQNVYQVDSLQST

CC1Sc2ccc(S(=O)(=O)N3CCC(C(=O)Nc4ccc(Cl)cc4)CC3)cc2NC1=O (stereo not given)
EC50 (HEK293 [1]): 2.15 µM (active)
IC50 (HEK293 [2]): 3.16 µM (active)
IC50 (HEK293 [3]): 8.24 µM (active)
IC50 (HEK293 [4]): 3.93 µM (active)
IC50 [5]: 3.11 µM (active)
AC50 (INS1): 4.55 µM (active)
AC50 [6]: 2.42 µM (active)
AC50 [7]: 3.26 µM (active)
AC50 [8]: 1.6 µM (active)
IC50 (HEK293 [9]): 7.68 µM (active)

O=C(CN1C(=O)/C(=C2\SC(=S)N(CCS(=O)(=O)O)C2=O)c2ccccc21)Nc1cccc(Br)c1
IC50 [10]: 3.65 µM (active)
IC50 [11]: 9.59 µM (active)
IC50 [12]: > 50 µM (inactive)
IC50 [13]: 2 µM (active)
IC50 [14]: 4.92 µM (active)
IC50 (Bcl-2-like protein 1): > 109 µM (not active)
IC50 [15]: 30 µM (active)
IC50 (Beta-galactosidase): > 66.6 µM (inactive)
AC50 [16]: 12.4 µM (active)
EC50 (Protein RecA): 7.59 µM (active)
IC50 (Genome polyprotein): 21.6 µM (active)

Cc1ccccc1NC(=O)c1ccc(-c2cc(Cl)ccc2Cl)o1
IC50 [17]: > 25 µM (inactive)
IC50 [18]: > 25 µM (inactive)
IC50 [19]: > 25 µM (inactive)
IC50 [20]: 0.393 µM (active)
IC50 [21]: > 25 µM (inactive)

Oc1cc2c(cc1O)C(c1ccccc1)CNCC2 (stereo not given)
EC50 [22]: 109 µM (active)
EC50 [23]: 24 µM (active)
AC50 [24]: 5.38 µM (active)
AC50 [25]: 15.2 µM (active)
